Source: patent US9314525B2 (Axelar AB, priority 2010, dated 2016)
Values after ≈ are worked out from the molar mass of the structure shown.

Tests used:
[1] = Solubility in 1% SDS in water by LC-UV; type: physicochemical; settings: after 24 hours rotation, ambient temperature
Procedure: The solubility was determined in triplicate by use of LC-UV chromatography. […] The substance was rotated in the specific medium at ambient temperature for 24 hours, followed by filtering the supernatant using a hydrophilic PVDF (Millipore Corp.) 0.22 μm filter. The samples were then diluted with a 1:1 mixture of mobile phase A and B (see below) and analyzed using an Xterra™ MS C18, 50×2.1 mm column with UV detection at 288 nm. The mobile phase consisted of acetonitrile, water and trifluoroacetic acid, 5:95:0.1 (A) and 99:1:0.1 (B).
Solubility determinations were performed in 1% sodium dodecyl sulfate (SDS) in water.

[2] = target: insulin-like growth factor-1 receptor (IGF-1R) (Homo sapiens, UniProt P08069); settings: disclosed in WO 02/102804; cited from earlier work
[3] = Powder dissolution profiling (intrinsic dissolution rate and apparent solubility) in PhB 6.5 and FeSSIF pH 6.5
Procedure: Phosphate buffer pH 6.5 (PhB 6.5) was prepared according to a protocol by Galia and co-workers (Galia, E., et al. Evaluation of various dissolution media for predicting in vivo performance of class I and II drugs. Pharm Res 15, pp. 698-705 (1998)). Briefly, 1000 mL of […] Na2HPO4 buffer pH 6.5 was prepared by dissolving 3.95 g Na2HPO4xH2O, 6.19 g NaCl and 0.42 g NaOH in a volumetric flask by adding purified water. The pH was adjusted to pH to 6.5 by titration with 0.5 M NaOH and the volume was adjusted to 1000 mL with purified water. This buffer was sterile filtered and thereafter stored in refrigerator. Fed state simulated intestinal fluid (FeSSIF pH 6.5) was prepared fresh on the day of the experiment by dissolving 1.12 g of Na-taurocholate/lecithin powder (ePhares, Switzerland) in 100 mL PhB ((Galia, E., et al. Evaluation of various dissolution media for predicting in vivo performance of class I and II drugs. Pharm Res 15, pp. 698-705 (1998)). The media was stirred and preheated to 37±1° C. resulting in clear solution of pH 6.5 which contained a mixed micelle system of 15 mM taurocholate and 3.75 mM lecithin.
Dissolution rate and apparent solubility was measured with the pDISS Profiler™ (pION INC, MA, USA) from 0.3-1.3 mg compound weighed into the vial to which the preheated (37° C.) dissolution medium was added. […] Each UV probe was calibrated with its own standard curve prior to the experiment. The obtained results were analysed with the software accompanying the pDISS equipment.
The detailed procedure of the powder dissolution experiments, including the theoretical background, can be found in Avdeef, A., Tsinman, K., Tsinman, O., Sun, N. & Voloboy, D. Miniaturization of powder dissolution measurement and estimation of particle size. Chem Biodivers 6, 1796-1811 (2009); in Fagerberg, J. H., et al. Dissolution Rate and Apparent Solubility of Poorly Soluble Drugs in Biorelevant Dissolution Media. Mol Pharm 7, 1419-1430, (2010); and in Tsinman, K., Avdeef, A., Tsinman, O. & Voloboy, D. Powder dissolution method for estimating rotating disk intrinsic dissolution rates of low solubility drugs. Pharm Res 26, 2093-2100 (2009).

[4] = Slurry experiments with mixture of polymorphs B and C in saturated picropodophyllin solutions; type: physicochemical
Procedure: The solid was filtered off and the saturated picropodophyllin solutions were used in the slurry experiment below.
The solid was filtered off using a glass filter and stored at ambient conditions for 2 hours.
The solid was filtered off using a glass filter and left on the glass filter for 30 minutes.
The slurry was slowly stirred overnight. The slurry was removed from the oil bath and immediately filtered through a glass filter. The solid was left on the glass filter for 30 minutes.
The slurry was slowly stirred for 4 hours. The slurry was removed from the oil bath and immediately filtered through a glass filter. The solid was left on the glass filter for 30 minutes.

[5] = Physical stability of polymorphs stirred in water, sonicated or mortared (XRPD); type: physicochemical; settings: for Solid form by XRPD after stirring in water: slurry in water rotated for 24 hours
Procedure: The slurry was centrifuged and the supernatant was removed. The solid was dried under vacuum overnight and the sample was thereafter, stored at ambient conditions.
The slurry was centrifuged 3000 rpm for 10 minutes and the supernatant was removed. The solid was freezed (in a freezer) and freeze-dried overnight. The sample was kept at ambient conditions for 2 hours before the XRPD analysis.

[6] = Thermogravimetric analysis (TGA); type: physicochemical; settings: initial analysis
Procedure: (§1) Thermogravimetric analysis (TGA) was performed on a Seiko TG/DTA 6200 and open 90 μl Pt-pans with ca 10 to 25 mg of sample and a nitrogen flow of 200 ml/min. The temperature program was ambient (20° C.) to 400° C. with a heating rate of 10° C./min. A blank was subtracted and the TG data was normalized with respect to sample size and analyzed using the Muse Standard Analysis software, version 6.1 U (Seiko, Japan).

[7] = Three month solid state stability study (appearance, XRPD, TGA); type: physicochemical; settings: for TGA mass loss from ambient temperature to 150° C.: after 3 months storage at 40° C./75% RH; for Change in appearance: open containers
Procedure: Analysis was made by using X-Ray Powder Diffration (XRPD) and Thermogravimetry (TGA).
Experiments were run as described above using Cu Kα1 radiation (45 kV and 40 mA) at ambient temperature and humidity. Scans were run in continous scan mode in the range 2-50° 2θ using automatic divergence and antiscatter slits with observed length of 10 mm, a step size of 0.013° 2θ and a common counting time of 97.920 seconds.
as §1, with “Thermogravimetry” for “Thermogravimetric analysis”, “20” for “25”, “mL/min.” for “ml/min.”, “U.” for “U (Seiko, Japan).”

[8] = Dynamic Vapour Sorption (DVS) hygroscopicity; type: physicochemical; settings: from 0 to 90% RH, 25° C.
Procedure: The hygroscopicity of the samples was studied by Dynamic Vapor Sorption Gravimetry (DVS) using a DVS-1 (Surface Measurement Ltd., UK).
Each sample was run in three consecutive full cycles. The condition to proceed to the next level of RH was a weight increase below or equal to 0.001% within 15 minutes, with a maximum total time per step of 24 hours. The temperature was kept at 25° C.

[9] = listed as picropodophyllin polymorph B
[10] = listed as picropodophyllin polymorph C

Sequence of insulin-like growth factor-1 receptor (IGF-1R) (P08069 31-1367, species assumed): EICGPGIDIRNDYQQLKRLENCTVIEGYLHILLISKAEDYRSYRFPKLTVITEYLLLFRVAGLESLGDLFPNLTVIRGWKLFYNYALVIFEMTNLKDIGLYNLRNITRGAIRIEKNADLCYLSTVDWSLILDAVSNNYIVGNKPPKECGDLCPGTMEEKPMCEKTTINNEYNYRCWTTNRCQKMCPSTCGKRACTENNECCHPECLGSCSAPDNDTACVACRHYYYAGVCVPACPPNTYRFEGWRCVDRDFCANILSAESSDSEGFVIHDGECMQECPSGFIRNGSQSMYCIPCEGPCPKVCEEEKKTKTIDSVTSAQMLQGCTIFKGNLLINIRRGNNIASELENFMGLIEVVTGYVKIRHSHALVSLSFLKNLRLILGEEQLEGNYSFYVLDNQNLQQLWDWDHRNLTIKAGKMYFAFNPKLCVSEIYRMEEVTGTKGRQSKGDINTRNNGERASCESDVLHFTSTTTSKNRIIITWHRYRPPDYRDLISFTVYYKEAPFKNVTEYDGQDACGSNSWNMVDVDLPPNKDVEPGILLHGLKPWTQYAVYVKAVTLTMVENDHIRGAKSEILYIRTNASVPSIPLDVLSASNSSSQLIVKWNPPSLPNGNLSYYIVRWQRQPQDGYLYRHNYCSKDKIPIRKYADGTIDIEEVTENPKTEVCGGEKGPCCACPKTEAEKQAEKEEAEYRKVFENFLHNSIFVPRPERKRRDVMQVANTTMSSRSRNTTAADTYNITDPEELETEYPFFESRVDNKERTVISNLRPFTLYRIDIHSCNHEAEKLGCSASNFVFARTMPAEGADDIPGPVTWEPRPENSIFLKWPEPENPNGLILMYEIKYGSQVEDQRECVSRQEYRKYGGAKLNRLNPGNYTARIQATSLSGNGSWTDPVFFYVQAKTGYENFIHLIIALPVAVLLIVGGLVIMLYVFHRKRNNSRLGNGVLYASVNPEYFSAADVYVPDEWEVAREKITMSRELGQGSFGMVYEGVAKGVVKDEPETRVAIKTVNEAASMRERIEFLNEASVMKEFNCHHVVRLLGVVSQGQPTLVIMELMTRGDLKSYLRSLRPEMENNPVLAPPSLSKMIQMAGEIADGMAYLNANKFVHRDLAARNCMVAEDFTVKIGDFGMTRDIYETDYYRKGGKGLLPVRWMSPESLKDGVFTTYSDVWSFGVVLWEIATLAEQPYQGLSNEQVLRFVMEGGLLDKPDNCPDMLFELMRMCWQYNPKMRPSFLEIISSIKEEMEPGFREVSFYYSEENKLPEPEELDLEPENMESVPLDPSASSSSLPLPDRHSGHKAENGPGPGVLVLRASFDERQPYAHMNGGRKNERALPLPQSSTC

## COc1cc(C2c3cc4c(cc3C(O)[C@H]3COC(=O)[C@@H]23)OCO4)cc(OC)c1OC (stereo partly drawn) [picropodophyllin monohydrate, reference compound]
[1]; monohydrate
  Solubility in 1% SDS in water: 200 µg/mL

## COc1cc([C@@H]2c3cc4c(cc3[C@H](O)[C@H]3COC(=O)[C@@H]23)OCO4)cc(OC)c1OC [picropodophyllin]
[2]
  Inhibition of IGF-1R: specific and potent inhibitor

## COc1cc([C@@H]2c3cc4c(cc3[C@H](O)[C@H]3COC(=O)[C@@H]23)OCO4)cc(OC)c1OC [polymorph B, picropodophyllin]
[1]; 1% SDS in water, aqueous with cosolvent or surfactant or cyclodextrin, thermodynamic from solid
  solubility at 24 h: 700 µg/mL (≈ 1690 µM)
[3]; FeSSIF pH 6.5, 37° C., assay time polymorph B 16 hours, polymorph C 1.3 hours, triplicate
  Apparent Solubility assay 1: 25.51 ± 0.51 µg/mL
[3]; FeSSIF pH 6.5 vs PhB 6.5
  Solubility increase in FeSSIF as compared to PhB 6.5: 2.2 fold
[3]; PhB 6.5, 37° C., assay time polymorph B 19 hours, polymorph C […], mean ± SD, triplicate
  Apparent Solubility assay 1: 11.72 ± 0.22 µg/mL
[4]; acetone saturated with picropodophyllin, five days, ambient temperature
  Solid form obtained from slurry of polymorphs B and C: converted to polymorph C
[4]; ethyl acetate saturated with picropodophyllin, five days, ambient temperature
  Solid form obtained from slurry of polymorphs B and C: converted to polymorph C
[4]; mesitylene saturated with picropodophyllin, five days, ambient temperature
  Solid form obtained from slurry of polymorphs B and C: converted to polymorph C
[4]; mesitylene, 70° C., overnight
  Solid form obtained from slurry of polymorphs B and C: converted to polymorph C
[4]; mesitylene, 120° C., 4 hours
  Solid form obtained from slurry of polymorphs B and C: converted to polymorph C
[5]
  Solid form by XRPD after stirring in water: converted to a mixture of mainly picropodophyllin monohydrate and some picropodophyllin polymorph B
[6]; [9]
  TGA mass loss from ambient temperature to 150° C.: 0.0±0.1%
[7]; 3 months storage at 25° C./60% RH
  Solid-state instability (XRPD, TGA): does not show any sign(s) of solid-state instability
[7]; 3 months storage at 40° C./75% RH
  Solid-state instability (XRPD, TGA): does not show any sign(s) of solid-state instability
[7]; [9]
  TGA mass loss from ambient temperature to 150° C.: 0.0±0.1%
[7]; 3 months at 25° C./60% RH
  Change in appearance: no change in appearance
[7]; 3 months at 40° C./75% RH
  Change in appearance: no change in appearance
[8]
  DVS mass increase: 0.2%

## COc1cc([C@@H]2c3cc4c(cc3[C@H](O)[C@H]3COC(=O)[C@@H]23)OCO4)cc(OC)c1OC [polymorph C, picropodophyllin]
[1]; [10]
  Solubility in 1% SDS in water: 400 µg/mL (≈ 965 µM)
[3]; 37 °C, pH 6.5, aqueous buffer, thermodynamic from solid, Apparent Solubility Assay 1 + 2, PhB 6.5, 37° C., assays 1 and 2 combined, mean ± SD
  solubility: 5.85 ± 0.25 µg/mL
[3]; 37 °C, pH 6.5, aqueous buffer, thermodynamic from solid, Apparent Solubility assay 1, PhB 6.5, 37° C., assay time polymorph B 19 hours, polymorph C […], mean ± SD, triplicate
  solubility: 5.88 ± 0.09 µg/mL (≈ 14.2 µM)
[3]; 37 °C, pH 6.5, aqueous buffer, thermodynamic from solid, Apparent Solubility assay 2, PhB 6.5, 37° C., assay time 29 hours (value obtained after 50 minutes), mean ± SD, triplicate
  solubility at 50 min: 5.81 ± 0.38 µg/mL (≈ 14 µM)
[3]; 37 °C, pH 6.5, fessif, thermodynamic from solid, Apparent Solubility Assay 1 + 2, FeSSIF pH 6.5, 37° C., assays 1 and 2 combined
  solubility: 12.6 ± 0.8 µg/mL
[3]; 37 °C, pH 6.5, fessif, thermodynamic from solid, Apparent Solubility assay 2, FeSSIF pH 6.5, 37° C., assay time 25 hours, triplicate
  solubility at 25 h: 12.2 ± 1.07 µg/mL (≈ 29.5 µM)
[5]; in purified water, cooled on ice, sonicated for 5 minutes
  Solid form by XRPD after sonication: no phase change occurred
[5]; mortared for 5 minutes in agate mortar
  Solid form by XRPD after mortaring: no phase change occurred
[5]; [10]
  Solid form by XRPD after stirring in water: no phase change occurred
[6]; [10]
  TGA mass loss from ambient temperature to 150° C.: 0.1±0.1%
[7]; [10]
  TGA mass loss from ambient temperature to 150° C.: 0.1±0.1%
